Where “and” joins values, the source holds several entries; their conditions need not be identical. Equal entries are not always repeated. Starred links: 1 amine or outer side, 2 acyl side, 3 side chain; linkers in the order of their positions; H or OH if unused. Positions of bridges follow the written chain, without caps; N, C: chain ends. Non-standard residues stand in square brackets, D forms with d. Residues, ends and D or L forms follow the SMILES beside them. TATA = O=C(CC[*:1])N1CN(C(=O)CC[*:2])CN(C(=O)CC[*:3])C1; Phe(4-F) = N[C@@H](Cc1ccc(F)cc1)C(=O)O; β3hR = N=C(N)NCCC[C@H](N)CC(=O)O
How the values were obtained:
Assay type in all cases: biochemical
plasma kallikrein = biological target: T1, plasma kallikrein (Homo sapiens, UniProt P03952); assay: Specificity profiling, residual protease activity
T1 construct: 1.5 nM, factor XIa (Innovative Research) 6 nM, plasma kallikrein (Innovative Research) 0.25; purchased Innovative Research
T1 sequence (P03952 391-638 limits assumed): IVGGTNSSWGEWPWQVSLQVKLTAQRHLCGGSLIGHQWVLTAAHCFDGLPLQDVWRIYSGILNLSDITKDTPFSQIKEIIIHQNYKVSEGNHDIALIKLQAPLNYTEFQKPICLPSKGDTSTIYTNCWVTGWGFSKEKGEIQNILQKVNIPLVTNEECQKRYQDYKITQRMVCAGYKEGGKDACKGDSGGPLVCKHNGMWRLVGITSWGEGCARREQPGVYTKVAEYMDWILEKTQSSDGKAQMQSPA
T1 sequence (P03952 20-390 limits assumed): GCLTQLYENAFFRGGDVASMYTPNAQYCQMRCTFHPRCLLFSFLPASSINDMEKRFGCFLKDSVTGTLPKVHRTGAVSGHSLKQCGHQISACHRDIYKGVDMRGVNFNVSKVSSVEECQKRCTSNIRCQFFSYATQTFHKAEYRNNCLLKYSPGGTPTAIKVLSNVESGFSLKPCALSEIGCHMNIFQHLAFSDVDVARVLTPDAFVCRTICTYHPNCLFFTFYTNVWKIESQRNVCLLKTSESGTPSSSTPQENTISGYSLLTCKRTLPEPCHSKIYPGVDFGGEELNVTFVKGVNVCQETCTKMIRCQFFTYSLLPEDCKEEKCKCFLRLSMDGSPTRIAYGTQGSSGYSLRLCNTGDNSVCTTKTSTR
Experimental: (§1) Protease inhibition assays
(§2) The inhibitory activity of peptides was determined by measuring the residual protease activity with a fluorogenic substrate. The assay was performed in buffer containing 10 mM Tris-Cl, pH […]
(§3) 1% (v/v) DMSO in a volume of 150 µl. […]
(§4) HFXIIAB) were used at final concentrations of 0.4 nM. The reaction was pipetted as follows: 50 µl of bicyclic peptide in assay buffer were added to 50 µl of FXIIa in assay buffer and incubated for 10 minutes at 25°C before 50 µl of 150 µM fluorogenic substrate in assay buffer were added to measure the residual protease activity with an Infinite M200Pro fluorescence plate reader (excitation at 368 nm, emission at 467 nm; Tecan) for a period of 30 minutes with a read every minute at 25°C. The Tecan software i-control (version 1.1) was used for data analysis. Stock solutions of 1 mM bicyclic peptide were prepared by either dissolving the unpurified cyclization reaction with water or by dissolving purified and lyophilized peptide in water. The bicyclic peptides were serially diluted two-fold using assay buffer. Sigmoidal curves were fitted to the data using the following dose response equation (1), wherein x = peptide concentration, y = % protease activity, and p = Hill slope. IC50 values were derived from the fitted curve.
(§5) The inhibition constants (Ki) were calculated according to the equation of Cheng and Prusoff, Ki = IC50/(1+([S]0/Km), wherein IC50 is the functional strength of the inhibitor, [S]0 is the total substrate concentration, and Km is the Michaelis-Menten constant. […]
(§6) For testing the specificity of the bicyclic peptides, the following final concentrations of human serine proteases were used: tPA (Molecular Innovations) 7.5 nM, uPA (Molecular Innovations) 1.5 nM, factor XIa (Innovative Research) 6 nM, plasma kallikrein (Innovative Research) 0.25 nM, thrombin (Molecular Innovations) 1 nM, plasmin (Molecular Innovations) 2.5 nM, trypsin (Molecular Innovations) 0.05 nM, factor VIIa (Haematologic Technologies) 50 nM, factor Xa […]
(§7) (Haematologic Technologies) 6 nM, and activated protein C (APC) 5 nM. Two-fold dilutions of the peptide were prepared that ranged from 0.04 to 40 µM. The following fluorogenic substrates were used at a final concentration of 50 µM: Z-Phe-Arg-AMC (Bachem) for plasma kallikrein; Boc-Phe-Ser-Arg-AMC (Bachem) for factor XIa; Z-Gly-Gly-Arg-AMC (Bachem) for tPA, uPA, thrombin, and trypsin; H-D-Val-Leu-Lys-AMC (Bachem) for plasmin; and D-Phe-Pro-Arg-ANSNH-C4H9 (Haematologic Technologies) for FVIIa and FXa. For APC, the chromogenic substrate pyroGlu-Pro-Arg-pNA (S2366) was used at a concentration of 400 µM. […]

factor Xa = biological target: T2, factor Xa (Homo sapiens, UniProt P00742); assay: Specificity profiling, residual protease activity
T2 construct: (Molecular Innovations) 0.05 nM, factor VIIa (Haematologic Technologies) 50 nM, factor Xa; purchased Haematologic Technologies
T2 sequence (P00742 235-488 limits assumed): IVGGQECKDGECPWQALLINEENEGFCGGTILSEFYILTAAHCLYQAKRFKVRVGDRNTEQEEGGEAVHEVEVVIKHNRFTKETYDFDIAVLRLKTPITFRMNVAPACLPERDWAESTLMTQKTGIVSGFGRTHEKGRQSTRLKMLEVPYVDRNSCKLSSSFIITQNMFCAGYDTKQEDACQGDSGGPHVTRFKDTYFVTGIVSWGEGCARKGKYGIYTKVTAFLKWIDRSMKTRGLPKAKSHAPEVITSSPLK
T2 sequence (P00742 41-179 limits assumed): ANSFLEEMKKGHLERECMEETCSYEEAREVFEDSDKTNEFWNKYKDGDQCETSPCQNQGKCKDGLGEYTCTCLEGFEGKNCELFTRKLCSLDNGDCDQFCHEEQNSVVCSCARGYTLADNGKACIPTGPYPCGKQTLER
Experimental: as §1, §2, §3, §4, §5, §6, §7

[1] = biological target: activated protein C (APC) (Homo sapiens, UniProt P04070); assay: Specificity profiling, residual protease activity (chromogenic substrate)
Chain of activated protein C (APC) (P04070 212-461 limits assumed): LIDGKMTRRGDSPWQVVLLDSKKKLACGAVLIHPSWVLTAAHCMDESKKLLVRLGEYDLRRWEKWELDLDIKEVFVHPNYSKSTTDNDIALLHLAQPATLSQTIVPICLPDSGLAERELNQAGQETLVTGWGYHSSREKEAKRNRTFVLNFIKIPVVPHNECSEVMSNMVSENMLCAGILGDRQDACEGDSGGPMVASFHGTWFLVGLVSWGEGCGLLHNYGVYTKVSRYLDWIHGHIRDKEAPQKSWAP
Chain of activated protein C (APC) (P04070 43-197 limits assumed): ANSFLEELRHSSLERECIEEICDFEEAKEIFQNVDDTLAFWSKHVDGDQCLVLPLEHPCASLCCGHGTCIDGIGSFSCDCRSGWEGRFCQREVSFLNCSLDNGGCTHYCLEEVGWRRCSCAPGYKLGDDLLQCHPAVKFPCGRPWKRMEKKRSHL
Experimental: as §1, §2, §3, §4, §5, §6, §7

[2] = inhibitor 39.0625 nM, 0.0390625 µM
[3] = inhibitor 78.125 nM, 0.078125 µM
[4] = inhibitor 156.25 nM, 0.15625 µM
[5] = inhibitor 40000 nM (40 µM), 40 µM

In the case of `CC(C)C[C@@H]1NC(=O)[C@H](CCC(N)=O)NC(=O)[C@H](Cc2c[nH]cn2)NC(=O)[C@@H]2CSCCC(=O)N3CN(CN(C3)C(=O)CCSC[C@H](NC(=O)[C@@H](CO)NC(=O)[C@H](N)CCCNC(=N)N)C(=O)N[C@@H](Cc3ccc(F)cc3)C(=O)N[C@@H](CCCNC(=N)N)C(=O)N[C@@H](CC(C)C)C(=O)N3CCC[C@H]3C(=O)N2)C(=O)CCSC[C@@H](C(N)=O)NC(=O)C[C@H](CCCNC(=N)N)NC1=O` [FXII900] (H-[dR][dS]C[Phe(4-F)]RLPCHQL[β3hR]C-NH2; linker 3-8-13 via TATA), the Ki (plasma kallikrein) is reported as > 40 µM, the remaining activity at 0.0390625 µM (plasma kallikrein; inhibitor 39.0625 nM) is reported as 98.1% and the “Residual activity of Plasma kallikrein” value (plasma kallikrein; [2]) is reported as 100.436%. For the same compound, the remaining activity at 0.078125 µM (plasma kallikrein; inhibitor 78.125 nM) was 98.4%, the “Residual activity of Plasma kallikrein” value (plasma kallikrein; [3]) was 99.938% and the remaining activity at 0.15625 µM (plasma kallikrein; inhibitor 156.25 nM) was 98.9%. For the same compound, the “Residual activity of Plasma kallikrein” value (plasma kallikrein; [4]) was 99.0018%, the remaining activity at 0.3125 µM (plasma kallikrein; inhibitor 312.5 nM) was 102% and the “Residual activity of Plasma kallikrein” value (plasma kallikrein; inhibitor 312.5 nM, 0.3125 µM) was 98.8676%. The remaining activity at 0.625 µM (plasma kallikrein; inhibitor 625 nM) was 101%, the “Residual activity of Plasma kallikrein” value (plasma kallikrein; inhibitor 625 nM, 0.625 µM) was 98.0454% and the remaining activity at 1.25 µM (plasma kallikrein; inhibitor 1250 nM) was 101%. For the same compound, the “Residual activity of Plasma kallikrein” value (plasma kallikrein; inhibitor 1250 nM, 1.25 µM) was 97.0056%, the remaining activity at […] (plasma kallikrein; inhibitor 2500 nM) was 96% and the “Residual activity of Plasma kallikrein” value (plasma kallikrein; inhibitor 2500 nM, […]) was 95.4747%. The remaining activity at 5 µM (plasma kallikrein; inhibitor 5000 nM) was 92.8%, the “Residual activity of Plasma kallikrein” value (plasma kallikrein; inhibitor 5000 nM, 5 µM) was 93.0245% and the remaining activity at 10 µM (plasma kallikrein; inhibitor 10000 nM) was 91.9%. For the same compound, the “Residual activity of Plasma kallikrein” value (plasma kallikrein; inhibitor 10000 nM, 10 µM) was 91.0418%, the remaining activity at 20 µM (plasma kallikrein; inhibitor 20000 nM) was 84.1% and the “Residual activity of Plasma kallikrein” value (plasma kallikrein; inhibitor 20000 nM, 20 µM) was 81.6415%. For the same compound, the remaining activity at 40 µM (plasma kallikrein; inhibitor 40000 nM (40 µM)) was 72%, the “Residual activity of Plasma kallikrein” value (plasma kallikrein; [5]) was 73.9098% and 69.1761% and the “Residual activity of FXa” value (factor Xa; [2]) was 101.787%. For the same compound, the remaining activity at 0.0390625 µM (factor Xa; inhibitor 39.0625 nM, read-out: Residual activity of FXa) was 94.8%, the “Residual activity of FXa” value (factor Xa; [3]) was 97.2913% and the remaining activity at 0.078125 µM (factor Xa; inhibitor 78.125 nM, read-out: Residual activity of FXa) was 93.4%. The “Residual activity of FXa” value (factor Xa; [4]) was 100.804%, the remaining activity at 0.15625 µM (factor Xa; inhibitor 156.25 nM, read-out: Residual activity of FXa) was 97.6% and the “Residual activity of FXa” value (factor Xa; inhibitor 312.5 nM, 0.3125 µM) was 95.4335%. The remaining activity at 0.3125 µM (factor Xa; inhibitor 312.5 nM, read-out: Residual activity of FXa) was 95.1%, the “Residual activity of FXa” value (factor Xa; inhibitor 625 nM, 0.625 µM) was 101.673% and the remaining activity at 0.625 µM (factor Xa; inhibitor 625 nM, read-out: Residual activity of FXa) was 97.6%. For the same compound, the “Residual activity of FXa” value (factor Xa; inhibitor 1250 nM, 1.25 µM) was 99.2096%, the remaining activity at 1.25 µM (factor Xa; inhibitor 1250 nM, read-out: Residual activity of FXa) was 99.4% and the “Residual activity of FXa” value (factor Xa; inhibitor 2500 nM, […]) was 104.071%. The remaining activity at […] (factor Xa; inhibitor 2500 nM, read-out: Residual activity of FXa) was 98.3%, the “Residual activity of FXa” value (factor Xa; inhibitor 5000 nM, 5 µM) was 101.691% and the remaining activity at 5 µM (factor Xa; inhibitor 5000 nM, read-out: Residual activity of FXa) was 94.7%. The “Residual activity of FXa” value (factor Xa; inhibitor 10000 nM, 10 µM) was 102.146%, the remaining activity at 10 µM (factor Xa; inhibitor 10000 nM, read-out: Residual activity of FXa) was 99.4% and the “Residual activity of FXa” value (factor Xa; inhibitor 20000 nM, 20 µM) was 104.386%. The remaining activity at 20 µM (factor Xa; inhibitor 20000 nM, read-out: Residual activity of FXa) was 94.7%, the “Residual activity of FXa” value (factor Xa; [5]) was 96.1187% and 97.9911% and the remaining activity at 40 µM (factor Xa; inhibitor 40000 nM (40 µM), read-out: Residual activity of FXa) was 97.1%. The Ki (factor Xa; read-out: Ki FXa) was > 40 µM, the Ki [1] was > 40 µM and the remaining activity at 0.0390625 µM ([1]; inhibitor 39.0625 nM) was 98.1%. The “Residual activity of APC” value [1, 2] was 97.5009% and 97.9227%, the remaining activity at 0.078125 µM ([1]; inhibitor 78.125 nM) was 102% and the “Residual activity of APC” value [1, 3] was 96.3711% and 96.6396%. For the same compound, the remaining activity at 0.15625 µM ([1]; inhibitor 156.25 nM) was 102%, the “Residual activity of APC” value [1, 4] was 97.5779% and 99.0137% and the remaining activity at 0.3125 µM ([1]; inhibitor 312.5 nM) was 102%. The “Residual activity of APC” value ([1]; inhibitor 312.5 nM, 0.3125 µM) was 99.2982% and 100.044%, the remaining activity at 0.625 µM ([1]; inhibitor 625 nM) was 103% and the “Residual activity of APC” value ([1]; inhibitor 625 nM, 0.625 µM) was 98.4851% and 100.174%. For the same compound, the remaining activity at 1.25 µM ([1]; inhibitor 1250 nM) was 103%, the “Residual activity of APC” value ([1]; inhibitor 1250 nM, 1.25 µM) was 97.7747% and 100.567% and the remaining activity at […] ([1]; inhibitor 2500 nM) was 102%. The remaining activity at 5 µM ([1]; inhibitor 5000 nM) was 101%, the “Residual activity of APC” value ([1]; inhibitor 5000 nM, 5 µM) was 97.0131% and 99.7294% and the remaining activity at 10 µM ([1]; inhibitor 10000 nM) was 101%. The “Residual activity of APC” value ([1]; inhibitor 10000 nM, 10 µM) was 97.8346% and 99.7294%, the remaining activity at 20 µM ([1]; inhibitor 20000 nM) was 101% and the “Residual activity of APC” value ([1]; inhibitor 20000 nM, 20 µM) was 96.859% and 99.2406%. For the same compound, the remaining activity at 40 µM ([1]; inhibitor 40000 nM (40 µM)) was 98.3 ± 2.3% and the “Residual activity of APC” value [1, 5] was 100.29% and 95.7977% and 98.8915%.

Source: article PMC7403315, “Cyclic peptide FXII inhibitor provides safe anticoagulation in a thrombosis model and in artificial lungs” (Nature Communications, 2020)
